We go through 42 compounds from patent US8933075B2, “Compounds useful as antiviral agents, compositions, and methods of use” (priority 2010, dated 2015).

The subject of the experiment is A/Udorn/72 (H3N2) virus. Put plainly: Plaque assay in MDCK cells: EC50 by reduction of plaque number. Format: cell-based, influenza virus. Particulars: MDCK.

The compound `COc1cc(OC)cc(-c2cc(CCCN3CCNCC3)c(/C=C3\SC(=S)N(C4CC5CCC4C5)C3=O)o2)c1` (stereo not drawn) [Compound 188] gave an EC50 below 100 nM.

For the compound `O=C1/C(=C/c2cc(C#CCCCO)c(-c3ccc(Cl)cc3)s2)SC(=S)N1C1C2CC3CC(C2)CC1C3` (stereo not drawn) [Compound 287], the concentration for a half-maximal effect (EC50) is below 100 nM.

As to `O=C1/C(=C/c2sc(-c3cccc(Cl)c3)cc2CCCCCO)SC(=S)N1C1CC2CCC1C2` (stereo not drawn) [Compound 277], the EC50 was below 100 nM.

`COC(=O)[C@@H](O)[C@H](O)C(=O)OCCCc1cc(-c2ccc(F)cc2)oc1/C=C1\SC(=S)N(C2CC3CCC2C3)C1=O` (stereo partly drawn) [Compound 177] had an EC50 below 100 nM.

The compound `O=C1/C(=C/c2oc(-c3ccc(F)cc3)cc2CCCCO)SC(=S)N1C1CC2CCC1C2` (stereo not drawn) [Compound 115] showed an EC50 below 100 nM.

In the case of `COC(=O)COc1ccc2c(O)c(-c3ccc(/C=C4\SC(=S)N(C5C6CC7CC(C6)CC5C7)C4=O)o3)c(=O)oc2c1` (stereo not drawn) [Compound 319], the EC50 is below 100 nM.

In turn, `CC(C)(C)OC(=O)N[C@@H](CC(N)=O)C(=O)OCCCCCc1cc(-c2ccc(Cl)cc2)sc1/C=C1\SC(=S)N(C2C3CC4CC(C3)CC2C4)C1=O` (stereo partly drawn) [Compound 308] returned an EC50 below 100 nM.

With `COC(=O)/C=C/c1ccc(/C=C2\SC(=S)N(C3C4CC5CC(C4)CC3C5)C2=O)o1` (stereo not drawn) [Compound 224], the EC50 is below 100 nM.

Regarding `O=C1/C(=C/c2oc(-c3ccc(Cl)cc3)cc2CCCCO)SC(=S)N1C1CC2CCC1C2` (stereo not drawn) [Compound 333], the EC50 is below 100 nM.

Turning to `COc1cc(OC)cc(-c2cc(CCCN3CCNCC3)c(/C=C3\SC(=S)N(C4C5CC6CC(C5)CC4C6)C3=O)o2)c1` (stereo not drawn) [Compound 190], the EC50 is below 100 nM.

In turn, `O=C1/C(=C/c2oc(-c3ccc(F)cc3)cc2CCCCCO)SC(=S)N1C1C2CC3CC(C2)CC1C3` (stereo not drawn) [Compound 106] returned an EC50 below 100 nM.

For the compound `COc1cc(OC)cc(-c2cc(CCCNC(=O)[C@@H](NC(=O)OC(C)(C)C)c3ccccc3)c(/C=C3\SC(=S)N(C4CC5CCC4C5)C3=O)o2)c1` (stereo partly drawn) [Compound 162], the EC50 was below 100 nM.

`COc1cc(OC)cc(-c2cc(CCCNC(=O)[C@@H]3CCCN3)c(/C=C3\SC(=S)N(C4CC5CCC4C5)C3=O)o2)c1` (stereo partly drawn) [Compound 172] displayed an EC50 below 100 nM.

As to `O=C1/C(=C/c2ccco2)SC(=S)N1C1CCCCCC1` [Compound 219, (Z)-3-cycloheptyl-5-(furan-2-ylmethylene)-2-thioxothiazolidin-4-one], the EC50 is 250 to 1000 nM.

Compound `O=C1/C(=C/c2oc(-c3cccc(Cl)c3)cc2CCCCCO)SC(=S)N1C1CC2CCC1C2` (stereo not drawn) [Compound 345] returned an EC50 below 100 nM.

`CCOC(=O)c1c(F)ccc(-c2ccc(/C=C3\SC(=S)N(C4CCCC4)C3=O)o2)c1F` [Compound 45] displayed an EC50 below 100 nM.

As for `COc1cc(COc2ccc3oc(=O)c(-c4ccc(/C=C5\SC(=S)N(C6CC7CCC6C7)C5=O)o4)c(O)c3c2)cc(OC)c1` (stereo not drawn) [Compound 326], the EC50 was below 100 nM.

With `COc1cc(-c2ccc(/C=C3\SC(=S)N(C4CC5CCC4C5)C3=O)o2)cc(OC)c1OC` (stereo not drawn) [Compound 2], the 50% effective concentration (EC50) is below 100 nM.

Turning to `COc1cc(OCC(=O)N2CCC[C@H]2C(=O)O)cc(-c2cc(CCCO)c(/C=C3\SC(=S)N(C4CC5CCC4C5)C3=O)o2)c1` (stereo partly drawn) [Compound 350], the EC50 is below 100 nM.

`O=C1/C(=C/c2cc(CCCCCO)c(-c3ccc(Cl)cc3)s2)SC(=S)N1C1CC2CCC1C2` (stereo not drawn) [Compound 284] yielded an EC50 below 100 nM.

On to `O=C1/C(=C/c2[nH]c(-c3ccc(Cl)cc3)cc2CCCO)SC(=S)N1C1CC2CCC1C2` (stereo not drawn) [Compound 229], for which the EC50 was below 100 nM.

`COc1cccc(-c2cc(CCCCCO)c(/C=C3\SC(=S)N(C4CC5CCC4C5)C3=O)s2)c1` (stereo not drawn) [Compound 280] had an EC50 below 100 nM.

The compound `COc1cc(OC)cc(-c2cc(CCCC(C(=O)O)C(=O)O)c(/C=C3\SC(=S)N(C4C5CC6CC(C5)CC4C6)C3=O)o2)c1` (stereo not drawn) [Compound 135] had an EC50 of 100 to 250 nM.

Consider `COc1cc(OC)cc(-c2cc(CCCCN3CCOCC3)c(/C=C3\SC(=S)N(C4CC5CCC4C5)C3=O)o2)c1` (stereo not drawn) [Compound 359], for which the EC50 was below 100 nM.

On to `COC(=O)/C=C/c1ccc(/C=C2\SC(=S)N(C3CC4CCC3C4)C2=O)o1` (stereo not drawn) [Compound 221, (E)-Methyl 3-(5-((Z)-(3-(bicyclo[2.2.1]heptan-2-yl)-4-oxo-2-thioxothiazolidin-5-ylidene)methyl)-furan-2-yl)acrylate], for which the EC50 is below 100 nM.

The compound `O=C1/C(=C/c2oc(-c3ccc(F)cc3)cc2CCCN2CCOCC2)SC(=S)N1C1C2CC3CC(C2)CC1C3` (stereo not drawn) [Compound 183] showed an EC50 below 100 nM.

Regarding `O=C1/C(=C/c2oc(-c3ccc(F)cc3)cc2CCCN2CCNCC2)SC(=S)N1C1CC2CCC1C2` (stereo not drawn) [Compound 187], the EC50 is below 100 nM.

On to `COc1cc(OC)cc(-c2cc(CCCOC(=O)[C@H](CC(C)C)NC(=O)OCC3c4ccccc4-c4ccccc43)c(/C=C3\SC(=S)N(C4CC5CCC4C5)C3=O)o2)c1` (stereo partly drawn) [Compound 141], for which the EC50 is 250 to 1000 nM.

Take `COc1cccc(-c2cc(CCCCCO)c(/C=C3\SC(=S)N(C4C5CC6CC(C5)CC4C6)C3=O)o2)c1` (stereo not drawn) [Compound 347]: the EC50 is below 100 nM.

Compound `COc1ccc(-c2ccc(/C=C3\SC(=S)N(C4CC5CCC4C5)C3=O)o2)cc1C(=O)N[C@@H](CC(C)C)C(=O)O` (stereo partly drawn) [Compound 87] came in with an EC50 below 100 nM.

In turn, `O=C1/C(=C/c2cc3cc(Br)ccc3[nH]2)SC(=S)N1C1C2CC3CC(C2)CC1C3` (stereo not drawn) [Compound 213, 3-adamantan-2-yl-5-(5-bromo-1H-indol-2-ylmethylene)-2-thioxo-thiazolidin-4-one] had an EC50 below 100 nM.

Consider `O=C1/C(=C/c2ccc(-c3ccc(Cl)cc3)o2)SC(=S)N1C1CCCC1` [Compound 48], for which the EC50 was below 100 nM.

In turn, `COc1cc(OC)cc(-c2cc(CCCCCOC(=O)[C@H](CC(N)=O)NC(=O)OC(C)(C)C)c(/C=C3\SC(=S)N(C4CC5CCC4C5)C3=O)o2)c1` (stereo partly drawn) [Compound 150] returned an EC50 below 100 nM.

Consider `O=C1/C(=C/c2csc3ccccc23)SC(=S)N1C1C2CC3CC(C2)CC1C3` (stereo not drawn) [Compound 211, 3-adamantan-2-yl-5-benzo[b]thiophen-3-ylmethylene-2-thioxo-thiazolidin-4-one], for which the EC50 was below 100 nM.

In turn, `COc1cc(COc2ccc3oc(=O)c(-c4ccc(/C=C5\SC(=S)N(C6CC7CCC6C7)C5=O)s4)c(O)c3c2)cc(OC)c1` (stereo not drawn) [Compound 315] showed an EC50 below 100 nM.

Consider `O=C1/C(=C/c2oc(-c3ccc(Cl)cc3)cc2CCCN2CCOCC2)SC(=S)N1C1C2CC3CC(C2)CC1C3` (stereo not drawn) [Compound 184], for which the EC50 is below 100 nM.

For the compound `CC(C)(C)N1C(=O)C[C@@H](C(=O)OCCCc2cc(-c3ccc(Cl)cc3)[nH]c2/C=C2\SC(=S)N(C3C4CC5CC(C4)CC3C5)C2=O)NC1=O` (stereo partly drawn) [Compound 252], the EC50 is below 100 nM.

Regarding `O=C1/C(=C/c2ccc(-c3ccc(Cl)cc3)o2)SC(=S)N1C1CCCCC1` [Compound 47], the EC50 is below 100 nM.

Compound `COc1ccc(-c2ccc(/C=C3\SC(=S)N(C4CCCCC4)C3=O)o2)c(F)c1F` [Compound 52] had an EC50 below 100 nM.

With `COc1cc(OC)cc(-c2cc(CCCCCO)c(/C=C3\SC(=S)N(C4C5CC6CC(C5)CC4C6)C3=O)o2)c1` (stereo not drawn) [Compound 110], the EC50 was below 100 nM.

As for `COc1cccc(-c2cc(CCCCCO)c(/C=C3\SC(=S)N(C4CC5CCC4C5)C3=O)o2)c1` (stereo not drawn) [Compound 348], the EC50 was below 100 nM.

In turn, `COc1cc(OC)cc(-c2cc(CCCO)c(/C=C3\SC(=S)N(C4CC5CCC4C5)C3=O)o2)c1` (stereo not drawn) [Compound 96] returned an EC50 below 100 nM.

One may read the EC50 as the concentration at which the effect is half-maximal. A high value points to a less potent agent.
